In US10399933B2, “Inhibitors of indoleamine-2,3-dioxygenase for the treatment of cancer” (BRISTOL-MYERS SQUIBB COMPANY, priority 2015, dated 2019) one finds IC50 data, which are given here for 29 compounds.

What is called IC50 is the concentration needed to halve the response being measured. The low end stands for greater potency, the high end for weaker potency.

For the experiment, the target named is human IDO1 (Homo sapiens, UniProt P14902). Kind of experiment: Human IDO-1 inhibitory activity in Hela cells (interferon-gamma stimulated). In kind it is cell-based. Further details: endogenous in cells; host or cells: HeLa cells stimulated with interferon-gamma. As to conditions: 18 hours, unstimulated wells = 100% inhibition. The protocol: HeLa cells were seeded at 20,000 cells per 30 μL per well with RPMI/phenol red free media containing 10% FBS in a 384-well tissue culture plate (black with clear bottoms). 50 nL of compound was added to cells and incubated at 37° C. for one hour. 20 μL of the recombinant human Interferon-gamma (R&D System, Cat. #285-IF, at final concentration of 10 ng/ml) or recombinant murine Interferon-gamma (PEPROTECH® Inc., Cat. #315-05, final concentration of 5 ng/ml) was added to activate IDO signaling. The cells were incubated for 18 hours in 37° C. incubator with 5% CO2.
human IDO1, sequence (P14902 whole entry): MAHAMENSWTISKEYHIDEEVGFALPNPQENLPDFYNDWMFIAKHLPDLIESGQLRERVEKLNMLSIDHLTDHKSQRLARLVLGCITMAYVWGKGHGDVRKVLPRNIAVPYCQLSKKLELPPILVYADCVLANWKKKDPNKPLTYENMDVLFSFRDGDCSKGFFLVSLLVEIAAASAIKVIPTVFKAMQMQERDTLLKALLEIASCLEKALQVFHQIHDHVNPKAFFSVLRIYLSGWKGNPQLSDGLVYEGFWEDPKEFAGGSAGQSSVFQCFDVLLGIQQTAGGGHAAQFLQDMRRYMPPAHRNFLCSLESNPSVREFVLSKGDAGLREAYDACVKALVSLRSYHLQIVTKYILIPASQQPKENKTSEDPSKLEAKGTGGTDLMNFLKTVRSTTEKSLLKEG
Compound treatment was stopped by adding 5 μl trichloroacetic acid to a final concentration of 3%. Subsequently, the cell plate was further incubated at 50° C. for 30 minute. An equal volume supernatant (20 μL) and 2% (w/v) Ehrlich reagent (4-dimethylaminobenzaldehyde) in glacial acetic acid were mixed in a new clear bottom 384-well plate. This plate was incubated at room temperature for 30 minutes. Absorbance at 490 nm was measured on Envision plate reader.
Compound IC50 values were calculated using counts from unstimulated (no INF-gamma treatment) wells as 100% inhibition. INF-gamma treatment without compound treatment as 0% inhibition.
`CCN(c1ccc([C@H](COC)CC(=O)O)cc1Nc1cccc(OC(F)(F)C(F)F)c1)C1CCOCC1` (single isomer, unassigned) [Example 397]: the IC50 is > 50 nM.

Consider “(S)-3-(3-((4-chlorophenyl)amino)- 4-((1,1-dioxidotetrahydro-2H- thiopyran-4-yl)(ethyl)amino) phenyl)-4-isopropoxybutanoic acid [Example 325]”, for which the IC50 is < 5 nM.

For the compound `CCN(c1cc(F)c(C(COC)CC(=O)O)cc1Nc1ccc(C#N)c(F)c1)C1CCOCC1` (single isomer, unassigned) [Example 853, 3-(5-((4-cyano-3-fluorophenyl)amino)-4-(ethyl(tetrahydro-2H-pyran-4-yl)amino)-2-fluorophenyl)-4-methoxybutanoic acid], the IC50 was < 5 nM.

With `CCN(c1ccc([C@H](COC)CC(=O)O)cc1Nc1ccccc1C#N)C1CCOCC1` (single isomer, unassigned) [Example 406], the IC50 was > 50 nM.

Regarding `CCN(c1ccc([C@H](COC)CC(=O)O)cc1Nc1ccc(S(=O)(=O)CC)cc1)C1CCOCC1` (single isomer, unassigned) [Example 421], the IC50 was > 50 nM.

With `CCN(c1ccc([C@H](COC)CC(=O)O)cc1Nc1ncc(Cl)cn1)C1CCOCC1` (single isomer, unassigned) [Example 394], the IC50 is < 50 nM.

On to “3-(4-((1,1-dioxidotetrahydro-2H- thiopyran-4-yl)(ethyl)amino)-3- ((4-fluorophenyl)amino)phenyl)-4- isopropoxybutanoic acid [Example 345]”, for which the IC50 is > 50 nM.

As for `CCC(CC(=O)O)c1ccc(N(CCOC)C2CCOCC2)c(NC(=O)Nc2ccc(C)cc2)c1` (single isomer, unassigned) [Example 1264 E2, 3-(4-((2-Methoxyethyl)(tetrahydro-2H-pyran-4-yl)amino)-3-(3-(p-tolyl)ureido)phenyl)pentanoic Acid], the half-maximal inhibitory concentration (IC50) is > 50 nM.

In the case of `CCCN(c1ccc(C(COC)CC(=O)O)cc1Nc1ccc(C#N)cc1)C1CCS(=O)(=O)CC1` (single isomer, unassigned) [Example 182 Enantiomer 1, 3-(3-((4-Cyanophenyl)amino)-4-((1,1-dioxidotetrahydro-2H-thiopyran-4-yl)(propyl)amino)phenyl)-4-methoxybutanoic Acid], the IC50 is < 50 nM.

With `CCN(c1ccc(C(COC)CC(=O)O)cc1Nc1cnc(OC)nc1)C1CCS(=O)(=O)CC1` (single isomer, unassigned) [Example 168 Enantiomer 1, 3-(4-((1,1-Dioxidotetrahydro-2H-thiopyran-4-yl)(ethyl)amino)-3-((2-methoxypyrimidin-5-yl)amino)phenyl)-4-methoxybutanoic Acid], the IC50 was > 50 nM.

Turning to `CCN(c1ccc(C(COC)CC(=O)O)cc1Nc1ccc(C#N)cc1)C1CCCOC1` (single isomer, unassigned) [264 E1], the IC50 was < 50 nM.

Take `CCN(c1ccc(C(COC)CC(=O)O)cc1Nc1ccc(C#N)cc1)C1CCCOC1` (single isomer, unassigned) [265 E2]: the IC50 was < 5 nM.

As for `CCN(c1ccc(C(COC(C)C)CC(=O)O)cc1Nc1ccc(F)cc1)C1CCS(=O)(=O)CC1` (centres unmarked) [Example 340], the IC50 was < 50 nM.

With “(R)-3-(4-(ethyl(tetrahydro-2H- pyran-4-yl)amino)-3-((3- (1,1,2,2-tetrafluoroethoxy) phenyl)amino)phenyl)-4- methoxybutanoic acid [Example 398]”, the IC50 was < 5 nM.

Take `CCN(c1ccc([C@H](COC)CC(=O)O)cc1Nc1ccc(C#N)cc1F)C1CCOCC1` (single isomer, unassigned) [Example 392]: the IC50 was < 5 nM.

For `CCN(c1ccc([C@H](COC)CC(=O)O)cc1Nc1ccc(C#N)cc1C)C1CCOCC1` (single isomer, unassigned) [Example 404], the IC50 is < 50 nM.

Regarding `COCC(CC(=O)O)c1ccc(N2CCOC(C)C2)c(NC(=O)Nc2ccc(Cl)cc2F)c1` (single isomer, unassigned) [Example 1314 D2, 3-(3-(3-(4-Chloro-2-fluorophenyl)ureido)-4-(2-methylmorpholino)phenyl)-4-methoxybutanoic Acid], the IC50 was > 50 nM.

In the case of `CCN(c1ccc([C@H](COC)CC(=O)O)cc1Nc1ccc(C#N)cn1)C1CCOCC1` (single isomer, unassigned) [Example 389], the IC50 is < 50 nM.

Regarding “(R)-3-(4-(ethyl(tetrahydro-2H- pyran-4-yl)amino)-3-((2- (tetrahydro-2H-pyran-4- yl)pyrimidin-5-yl)amino) phenyl)-4-methoxybutanoic acid [Example 403]”, the half-maximal inhibitory concentration (IC50) is > 50 nM.

Regarding `CCN(c1ccc([C@H](COC)CC(=O)O)cc1Nc1ccc(F)cn1)C1CCOCC1` (single isomer, unassigned) [Example 400], the IC50 is < 50 nM.

Take `CCN(c1ccc(C(CC(=O)O)C2CC2)cc1NC(=O)Nc1ccc(C#N)cc1)C1CCS(=O)(=O)CC1` (single isomer, unassigned) [Example 348 E1, 3-(3-(3-(4-Cyanophenyl)ureido)-4-((1,1-dioxidotetrahydro-2H-thiopyran-4-yl)(ethyl)amino)phenyl)-3-cyclopropylpropanoic Acid]: the IC50 was > 50 nM.

On to `CCN(c1ccc([C@H](COC)CC(=O)O)cc1Nc1cccc(C#N)c1)C1CCOCC1` (single isomer, unassigned) [Example 405], for which the IC50 is > 50 nM.

`COCC(CC(=O)O)c1ccc(N2CCOC(C)C2)c(Nc2ccc(Cl)cc2)c1` (single isomer, unassigned) [Example 1311 D1, 3-(3-((4-Chlorophenyl)amino)-4-(2-methylmorpholino)phenyl)-4-methoxybutanoic Acid]: the IC50 is > 50 nM.

For the compound `COC[C@@H](CC(=O)O)c1ccc(N2CCOc3ccccc32)c(Nc2ccc(C#N)cc2)c1` (single isomer, unassigned) [Example 1358], the IC50 is > 50 nM.

As to `COCC(CC(=O)O)c1ccc(N2C[C@@H](C)O[C@@H](C)C2)c(NC(=O)Nc2ccc(C#N)cc2)c1` (single isomer, unassigned) [Example 605 Diastereomer 2], the IC50 was > 50 nM.

As for `CCN(c1ccc([C@H](COC)CC(=O)O)cc1Nc1ccc(C#N)c(OCC(F)F)c1)C1CCOCC1` (single isomer, unassigned) [Example 408], the IC50 is < 50 nM.

With `CCN(c1cc(F)c(C(COC)CC(=O)O)cc1Nc1ccc(C#N)cc1F)C1CCOCC1` (single isomer, unassigned) [Example 854, 3-(5-((4-cyano-2-fluorophenyl)amino)-4-(ethyl(tetrahydro-2H-pyran-4-yl)amino)-2-fluorophenyl)-4-methoxybutanoic acid], the concentration for half-maximal inhibition (IC50) is < 5 nM.

On to “(R)-3-(3-((4-chlorophenyl)amino)- 4-((1,1-dioxidotetrahydro-2H- thiopyran-4-yl)(ethyl)amino) phenyl)-4-isopropoxybutanoic acid [Example 330]”, for which the IC50 is < 5 nM.

In the case of “(S)-3-(4-((1,1-dioxidotetrahydro- 2H-thiopyran-4-yl)(ethyl)amino)- 3-((2-ethoxypyrimidin-5-yl)amino) phenyl)-4-isopropoxybutanoic acid [Example 328]”, the IC50 is > 50 nM.
